Assay results: ChEMBL document CHEMBL4673219, “Novel 5,6-disubstituted pyrrolo[2,3-d]pyrimidine derivatives as broad spectrum antiproliferative agents: Synthesis, cell based assays, kinase profile and molecular docking study” (Bioorg Med Chem, 2018)

Legend:
[1] = system: OVCAR-4; test: Growth inhibition of human OVCAR-4 cells assessed as growth percentage at 0.1 uM incubated for 48 hrs by sulforhodamine B assay relative to control; type: functional; settings: read-out: Activity
[2] = system: HOP-62; test: Growth inhibition of human HOP-62 cells assessed as growth percentage at 1 uM incubated for 48 hrs by sulforhodamine B assay relative to control; type: functional; settings: read-out: Activity
[3] = system: UO-31; test: Growth inhibition of human UO-31 cells assessed as growth percentage at 1 uM incubated for 48 hrs by sulforhodamine B assay relative to control; type: functional; settings: read-out: Activity
[4] = system: SK-MEL-5; test: Growth inhibition of human SK-MEL-5 cells assessed as growth percentage at 0.01 uM incubated for 48 hrs by sulforhodamine B assay relative to control; type: functional; settings: read-out: Activity
[5] = system: T47D; test: Growth inhibition of human T47D cells assessed as growth percent at 0.1 uM incubated for 48 hrs by sulforhodamine B assay relative to control; type: functional; settings: read-out: Activity
[6] = system: Hs-578T; test: Growth inhibition of human Hs-578T cells assessed as growth percentage at 1 uM incubated for 48 hrs by sulforhodamine B assay relative to control; type: functional; settings: read-out: Activity
[7] = system: MCF7; test: Growth inhibition of human MCF7 cells incubated for 48 hrs by sulforhodamine B assay; type: functional; settings: Homo sapiens, MCF7, 48 h
[8] = system: T47D; test: Growth inhibition of human T47D cells assessed as growth percentage at 0.01 uM incubated for 48 hrs by sulforhodamine B assay relative to control; type: functional; settings: read-out: Activity
[9] = system: Hs-578T; test: Growth inhibition of human Hs-578T cells assessed as growth percentage at 10 uM incubated for 48 hrs by sulforhodamine B assay relative to control; type: functional; settings: read-out: Activity
[10] = system: MDA-MB-435; test: Growth inhibition of human MDA-MB-435 cells assessed as growth percentage at 10 uM incubated for 48 hrs by sulforhodamine B assay relative to control; type: functional; settings: read-out: Activity
[11] = system: COLO 205; test: Growth inhibition of human COLO 205 cells assessed as growth percentage at 1 uM incubated for 48 hrs by sulforhodamine B assay relative to control; type: functional; settings: read-out: Activity
[12] = system: HCT-116; test: Growth inhibition of human HCT-116 cells assessed as growth percentage at 1 uM incubated for 48 hrs by sulforhodamine B assay relative to control; type: functional; settings: read-out: Activity
[13] = Cytotoxicity against human HFF-1 cells assessed as cell growth inhibition by MTT assay; type: cell-based
[14] = system: SNB-75; test: Growth inhibition of human SNB-75 cells assessed as growth percentage at 0.1 uM incubated for 48 hrs by sulforhodamine B assay relative to control; type: functional; settings: read-out: Activity
[15] = system: Malme-3M; test: Growth inhibition of human Malme-3M cells assessed as growth percentage at 0.01 uM incubated for 48 hrs by sulforhodamine B assay relative to control; type: functional; settings: read-out: Activity
[16] = system: SF-268; test: Growth inhibition of human SF-268 cells assessed as growth percentage at 0.01 uM incubated for 48 hrs by sulforhodamine B assay relative to control; type: functional; settings: read-out: Activity
[17] = system: UACC-62; test: Growth inhibition of human UACC-62 cells assessed as growth percentage at 100 uM incubated for 48 hrs by sulforhodamine B assay relative to control; type: functional; settings: read-out: Activity
[18] = system: MCF7; test: Growth inhibition of human MCF7 cells assessed as growth percentage at 0.01 uM incubated for 48 hrs by sulforhodamine B assay relative to control; type: functional; settings: read-out: Activity
[19] = system: UO-31; test: Growth inhibition of human UO-31 cells assessed as growth percentage at 100 uM incubated for 48 hrs by sulforhodamine B assay relative to control; type: functional; settings: read-out: Activity
[20] = system: TK-10; test: Growth inhibition of human TK-10 cells assessed as growth percentage at 0.1 uM incubated for 48 hrs by sulforhodamine B assay relative to control; type: functional; settings: read-out: Activity
[21] = system: HCC 2998; test: Growth inhibition of human HCC 2998 cells assessed as growth percentage at 10 uM incubated for 48 hrs by sulforhodamine B assay relative to control; type: functional; settings: read-out: Activity
[22] = system: MDA-MB-468; test: Growth inhibition of human MDA-MB-468 cells incubated for 48 hrs by sulforhodamine B assay; type: functional; settings: Homo sapiens
[23] = system: NCI-H226; test: Growth inhibition of human NCI-H226 cells assessed as growth percentage at 1 uM incubated for 48 hrs by sulforhodamine B assay relative to control; type: functional; settings: read-out: Activity
[24] = system: SNB-75; test: Growth inhibition of human SNB-75 cells assessed as growth percentage at 1 uM incubated for 48 hrs by sulforhodamine B assay relative to control; type: functional; settings: read-out: Activity
[25] = system: IGROV-1; test: Growth inhibition of human IGROV-1 assessed as growth percent at 100 uM incubated for 48 hrs by sulforhodamine B assay relative to control; type: functional; settings: read-out: Activity
[26] = system: SN12C; test: Growth inhibition of human SN12C cells assessed as growth percentage at 0.1 uM incubated for 48 hrs by sulforhodamine B assay relative to control; type: functional; settings: read-out: Activity
[27] = system: NCI/ADR-RES; test: Growth inhibition of human NCI/ADR-RES cells assessed as growth percentage at 1 uM incubated for 48 hrs by sulforhodamine B assay relative to control; type: functional; settings: read-out: Activity
[28] = system: SK-MEL-5; test: Growth inhibition of human SK-MEL-5 cells assessed as growth percentage at 100 uM incubated for 48 hrs by sulforhodamine B assay relative to control; type: functional; settings: read-out: Activity
[29] = system: NCI-H226; test: Growth inhibition of human NCI-H226 cells assessed as growth percentage at 10 uM incubated for 48 hrs by sulforhodamine B assay relative to control; type: functional; settings: read-out: Activity
[30] = system: HCC 2998; test: Growth inhibition of human HCC 2998 cells incubated for 48 hrs by sulforhodamine B assay; type: functional; settings: Homo sapiens, HCC 2998, 48 h
[31] = system: MDA-MB-231; test: Growth inhibition of human MDA-MB-231/ATCC cells assessed as growth percentage at 1 uM incubated for 48 hrs by sulforhodamine B assay relative to control; type: functional; settings: read-out: Activity
[32] = system: OVCAR-8; test: Growth inhibition of human OVCAR-8 cells assessed as growth percentage at 1 uM incubated for 48 hrs by sulforhodamine B assay relative to control; type: functional; settings: read-out: Activity
[33] = system: UACC-62; test: Growth inhibition of human UACC-62 cells assessed as growth percentage at 0.1 uM incubated for 48 hrs by sulforhodamine B assay relative to control; type: functional; settings: read-out: Activity
[34] = system: SK-BR-3; test: Antiproliferative activity against human SK-BR-3 cells assessed as cell growth inhibition measured after 72 hrs by MTT assay; type: functional
[35] = system: HOP-62; test: Growth inhibition of human HOP-62 cells assessed as growth percentage at 0.01 uM incubated for 48 hrs by sulforhodamine B assay relative to control; type: functional; settings: read-out: Activity
[36] = system: 786-0; test: Growth inhibition of human 786-0 cells assessed as growth percentage at 100 uM incubated for 48 hrs by sulforhodamine B assay relative to control; type: functional; settings: read-out: Activity
[37] = system: HOP-92; test: Growth inhibition of human HOP-92 cells assessed as growth percentage at 0.1 uM incubated for 48 hrs by sulforhodamine B assay relative to control; type: functional; settings: read-out: Activity
[38] = system: MOLT-4; test: Growth inhibition of human MOLT-4 cells incubated for 48 hrs by sulforhodamine B assay; type: functional; settings: Homo sapiens, MOLT-4, 48 h

For `Nc1nc2[nH]c(CN3CCN(c4cc(Cl)cc(Cl)c4)CC3)c(CN3CCN(c4cc(Cl)cc(Cl)c4)CC3)c2c(=O)[nH]1`, the growth at 0.1 µM [1] was 95%, the growth at 1 µM [2] was 85% and the growth at 1 µM [3] was 90%. The growth at 0.01 µM [4] was 96%, the growth at 0.1 µM [5] was 90% and the growth at 1 µM [6] was 84%. It also gave a GI50 [7] of 1.58 µM, a TGI [7] of 3.43 µM and a growth at 0.01 µM [8] of 91%. It also gave a growth at 10 µM [9] of 98.8%, a growth at 10 µM [10] of 8.61% and a growth at 1 µM [11] of 85%. It also gave a growth at 1 µM [12] of 87%, a GI50 [13] greater than 10 µM and a growth at 0.1 µM [14] of 89%. It also gave a growth at 0.01 µM [15] of 95%, a growth at 0.01 µM [16] of 102% and a growth at 100 µM [17] of -49%. For the same compound, the growth at 0.01 µM [18] was 86%, the growth at 100 µM [19] was -57% and the growth at 0.1 µM [20] was 103%. The growth at 10 µM [21] was 24%, the TGI ([22]; MDA-MB-468) was 3.75 µM and the GI50 ([22]; MDA-MB-468, 48 h) was 1.72 µM. For the same compound, the growth at 1 µM [23] was 93%, the growth at 1 µM [24] was 76% and the growth at 100 µM [25] was -48%. It also gave a growth at 0.1 µM [26] of 99%, a growth at 1 µM [27] of 102% and a growth at 100 µM [28] of -61%. It also gave a growth at 10 µM [29] of 96.5%, a GI50 [30] of 1.7 µM and a TGI [30] of 3.16 µM. The growth at 1 µM [31] was 101%, the growth at 1 µM [32] was 96% and the growth at 0.1 µM [33] was 102%. The GI50 [34] was 3.22 µM, the growth at 0.01 µM [35] was 81% and the growth at 100 µM [36] was -41%. The growth at 0.1 µM [37] was 73%, the GI50 [38] was 2.58 µM and the TGI [38] was 8.56 µM.
